Measurements as given in patent publication US20150050301A1, “Contiguous Overlapping Peptides for Treatment of House Dust Mites Allergy” (ANERGIS S.A., priority 2013, published 2015).
Where two headings read alike, the source gives them in different places. Residues, ends and D or L forms follow the SMILES beside them. No end group written: not given here.

Tests used:
[1] = Solubility Characteristics of COPs; assay type: physicochemical
Procedure: All COPs were synthesized by solid phase fmoc chemistry at research scale to allow determination of IgE binding. […] Peptides were resuspended either in water at 2 mg/ml or at 10 to 20 mg per ml in DMSO (see Table 1) and frozen in aliquots.

[2] = tested on: IgE of sera of house dust mite allergic patients binding to nDer p 1; assay: Competition ELISA on Der p 1 coated plates; design: species or system human; details: for effect of denaturing salts on IgE binding (Der p 1 competition ELISA): denaturing salts incl. guanidinium chloride or urea, 30 min pre-incubation with 1M guanidinium chloride; for IgE binding in competition ELISA (Der p 1): sera from patients allergic to house dust mites, COPs 10^−5 to 10^−10 M
Procedure: Purified Der p 1 or Der p 2 at 1.0 μg/ml were coated overnight on 96-well Nunc Maxisorp® immunoplates (Thermo Fisher Scientific Inc., Wohlen, Switzerland). After blocking with 1% BSA, either twenty-fold, thirty-fold or forty-fold up to 200-fold dilutions of patient serum were added depending on specific IgE content. […] Sera of allergic patients were obtained from US and Europe (PlasmaLab International, Everett, Wash., USA and Biomnis, Lyon, France) respectively) selected for positive CAP for D. pteronyssinus and clear signal over background and used to test for competition with the peptides. Serial dilutions of each set of COPs, namely for Der p 1 Set A, B, C or D and for Der p 2 mixes D, E or F at concentrations ranging from 10^−5 to 10^−10 M were pre-incubated with selected serums for 15 min. on ice.

Row | Molecule | Conc. ([1]; Solvent H2O) [µg/mL] | Conc. [1] [µg/mL] | further results
1 | CC[C@H](C)[C@H](NC(=O)CNC(=O)[C@H](Cc1ccccc1)NC(=O)[C@H](CCCNC(=N)N)NC(=O)[C@H](CCC(N)=O)NC(=O)[C@H](C)NC(=O)[C@H](CC(N)=O)NC(=O)[C@@H]1CCCN1C(=O)[C@H](CCCNC(=N)N)NC(=O)[C@H](CCCNC(=N)N)NC(=O)[C@H](CS)NC(=O)[C@H](CO)NC(=O)[C@H](CCC(N)=O)NC(=O)[C@H](CCC(=O)O)NC(=O)[C@H](CCCNC(=N)N)NC(=O)[C@H](C)N)C(=O)N[C@@H](CO)C(=O)N[C@@H](CC(N)=O)C(=O)N[C@@H](Cc1ccc(O)cc1)C(=O)N[C@@H](CS)C(=O)N[C@@H](CCC(N)=O)C(=O)N[C@H](C(=O)N[C@@H](Cc1ccc(O)cc1)C(=O)N1CCC[C@H]1C(=O)N1CCC[C@H]1C(=O)N[C@@H](CC(N)=O)C(=O)N[C@H](C(=O)N[C@@H](CC(N)=O)C(=O)N[C@@H](CCCCN)C(=O)N[C@H](C(=O)N[C@@H](CCCNC(=N)N)C(=O)N[C@@H](CCC(=O)O)C(=O)O)[C@@H](C)CC)C(C)C)[C@@H](C)CC [AllerDM1.5a] (H-AREQSCRRPNAQRFGISNYCQIYPPNVNKIRE-OH; N-terminus and C-terminus assumed) | 4700 | – | solubility in words [1]: solubility in water
2 | CC[C@H](C)[C@H](NC(=O)CNC(=O)[C@H](Cc1ccccc1)NC(=O)[C@H](CCCNC(=N)N)NC(=O)[C@H](CCC(N)=O)NC(=O)[C@H](C)NC(=O)[C@H](CC(N)=O)NC(=O)[C@@H]1CCCN1C(=O)[C@H](CCCNC(=N)N)NC(=O)[C@H](CCCNC(=N)N)NC(=O)[C@H](CS)NC(=O)[C@H](CO)NC(=O)[C@H](CCC(N)=O)NC(=O)[C@H](CCC(=O)O)NC(=O)[C@H](CCCNC(=N)N)NC(=O)[C@H](C)NC(=O)[C@@H](NC(=O)[C@H](Cc1ccc(O)cc1)NC(=O)[C@@H](N)CCCNC(=N)N)C(C)C)C(=O)N[C@@H](CO)C(=O)N[C@@H](CC(N)=O)C(=O)N[C@@H](Cc1ccc(O)cc1)C(=O)N[C@@H](CS)C(=O)N[C@@H](CCC(N)=O)C(=O)N[C@H](C(=O)N[C@@H](Cc1ccc(O)cc1)C(=O)N1CCC[C@H]1C(=O)N1CCC[C@H]1C(=O)N[C@@H](CC(N)=O)C(=O)N[C@H](C(=O)N[C@@H](CC(N)=O)C(=O)N[C@@H](CCCCN)C(=O)N[C@H](C(=O)N[C@@H](CCCNC(=N)N)C(=O)N[C@@H](CCC(=O)O)C(=O)O)[C@@H](C)CC)C(C)C)[C@@H](C)CC [AllerDM1.54] (H-RYVAREQSCRRPNAQRFGISNYCQIYPPNVNKIRE-OH; N-terminus and C-terminus assumed) | 2000 | – | solubility in words [1]: solubility in water
3 | CC[C@H](C)[C@H](NC(=O)[C@H](CCC(=O)O)NC(=O)[C@H](Cc1c[nH]cn1)NC(=O)[C@H](CC(N)=O)NC(=O)[C@H](C)NC(=O)[C@H](CS)NC(=O)[C@H](CC(=O)O)NC(=O)[C@H](CCCCN)NC(=O)[C@@H](NC(=O)[C@H](CC(=O)O)NC(=O)[C@@H](NC(=O)[C@H](CCC(N)=O)NC(=O)[C@@H](N)CC(=O)O)C(C)C)C(C)C)C(=O)N[C@@H](CCCCN)C(=O)N[C@@H](CCCCN)C(=O)N[C@H](C(=O)N[C@@H](CC(C)C)C(=O)N[C@H](C(=O)N1CCC[C@H]1C(=O)NCC(=O)N[C@@H](CS)C(=O)N[C@@H](Cc1c[nH]cn1)C(=O)NCC(=O)N[C@@H](CO)C(=O)N[C@@H](CCC(=O)O)C(=O)O)C(C)C)C(C)C [AllerDM2.3] (H-DQVDVKDCANHEIKKVLVPGCHGSE-OH; N-terminus and C-terminus assumed) | 3000 | – | –
4 | CC[C@H](C)[C@H](NC(=O)[C@H](CCC(=O)O)NC(=O)[C@H](Cc1c[nH]cn1)NC(=O)[C@H](CC(N)=O)NC(=O)[C@H](C)NC(=O)[C@H](CS)NC(=O)[C@H](CC(=O)O)NC(=O)[C@H](CCCCN)NC(=O)[C@@H](NC(=O)[C@H](CC(=O)O)NC(=O)[C@@H](NC(=O)[C@H](CCC(N)=O)NC(=O)[C@@H](N)CC(=O)O)C(C)C)C(C)C)C(=O)N[C@@H](CCCCN)C(=O)N[C@@H](CCCCN)C(=O)N[C@H](C(=O)N[C@@H](CC(C)C)C(=O)N[C@H](C(=O)N1CCC[C@H]1C(=O)NCC(=O)N[C@@H](CS)C(=O)N[C@@H](Cc1c[nH]cn1)C(=O)NCC(=O)N[C@@H](CO)C(=O)N[C@@H](CCC(=O)O)C(=O)N1CCC[C@H]1C(=O)N[C@@H](CS)C(=O)N[C@H](C(=O)N[C@H](C(=O)N[C@@H](Cc1c[nH]cn1)C(=O)N[C@@H](CCCNC(=N)N)C(=O)O)[C@@H](C)CC)[C@@H](C)CC)C(C)C)C(C)C [AllerDM2.6] (H-DQVDVKDCANHEIKKVLVPGCHGSEPCIIHR-OH; N-terminus and C-terminus assumed) | 3000 | – | –
5 | ASQHGCHGDTIPRGIEYIQHNGVVQESYYRYVAREQS [AllerDM1.53] | 4000 | – | solubility in words [1]: solubility in water
6 | ASQHGCHGDTIPRGIEYIQHNGVVQESYYRYVAREQSCRRPNAQRFGISNYCQIYPPNVNKIRE [AllerDM1.52] | – | 2300 | effect of denaturing salts on IgE binding (Der p 1 competition ELISA) [2]: strongly diminished IgE binding; IgE binding in competition ELISA (Der p 1) [2]: still bound IgE; solubility in words [1]: solubility in water
7 | HGSEPCIIHRGKPFQLEALFEANQNSKTAKIEIKASIDGLEVDVPGIDPNACHYMK (cysteines drawn unpaired) [AllerDM2.4] | – | 4200 | –
8 | HYMKCPLVKGQQYDIKYTWNVPKIAPKSENVVVTVKVLGDNGVLACAIATHAKIRD (cysteines drawn unpaired) [AllerDM2.5] | 1500 | – | –
9 | KVLGDNGVLACAIATHAKIRD [AllerDM2.9] | 1000 | – | –
10 | KYTWNVPKIAPKSENVVVTVKVLGDNGVLACAIATHAKIRD [AllerDM2.8] | 3500 | – | –
11 | LAEQELVDCASQHGCHGDTIPRGIEYIQHNGVVQESYYRYVAREQSCRRPNAQRFGISNYCQIYPPNVNKIRE [AllerDM1.5] | – | 1700 | IgE binding in competition ELISA (Der p 1) [2]: responsible for the reactivity; solubility in words [1]: solubility in water
12 | PNVNKIREALAQTHSAIAVIIGIKDLDAFRHYDGR [AllerDM1.63] | 2000 | – | –
13 | PNVNKIREALAQTHSAIAVIIGIKDLDAFRHYDGRTIIQRDNGYQPNYHAVNIVGYSNAQGVD [AllerDM1.62] | – | 2500 | effect of denaturing salts on IgE binding (Der p 1 competition ELISA) [2]: strongly diminished IgE binding; IgE binding in competition ELISA (Der p 1) [2]: residual IgE binding
14 | PNVNKIREALAQTHSAIAVIIGIKDLDAFRHYDGRTIIQRDNGYQPNYHAVNIVGYSNAQGVDYWIVRNSWDT [AllerDM1.6] | – | 800 | IgE binding in competition ELISA (Der p 1) [2]: responsible for the reactivity
15 | RHYDGRTIIQRDNGYQPNYHAVNIVGYSNAQGVD [AllerDM1.64] | 4000 | – | –
16 | SIDGLEVDVPGIDPNACHYMKCPLVKGQQYDIKYTWNVPKIAPKSENVVVTVKVLGD (cysteines drawn unpaired) [AllerDM2.10] | – | – | Conc. ([1]; H2O after acidification with HCl and neutralization with NaOH): 2000 µg/mL
17 | TNACSINGNAPAEIDLRQMRTVTPIRMQGGCGSCWAFSGVAATESAYLAYRNQSLDLAEQELVDCASQHGCHGDTIPRGIE (peptide, listed as Dermatophagoides pteronyssinus, Der p 1 contiguous overlapping peptide, 81AA) TNACSINGNAPAEIDLRQMRTVTPIRMQGGCGSCWAFSGVAATESAYLAYRNQSLDLAEQELVDCASQHGCHGDTIPRGIE | – | – | Conc. ([1]; H2O after addition of HCl and NaOH and citrate buffer pH5.5): 1000 µg/mL
18 | SQHGCHGDTIPRGIEYIQHNGVVQESYYRYVAREQSCRRPNAQRFGISNYCQIYPPNVNKIREALAQTHSAIAVIIGIKDLDAFRH (peptide) peptide: SQHGCHGDTIPRGIEYIQHNGVVQESYYRYVAREQSCRRPNAQRFGISNYCQIYPPNVNKIREALAQTHSAIAVIIGIKDLDAFRH | – | 2000 | IgE binding in competition ELISA (Der p 1) [2]: Residual IgE binding was observed
